Measured values: patent publication US20120245137A1 (Zalicus Pharmaceuticals Ltd., priority 2009, published 2012)
pIC50: −log10 of the molar value. One block for each compound: values may come before it.

How the values were obtained:
[1] = molecular target: human α1H T-type channels (Homo sapiens, UniProt O95180); test: T-type calcium channel block, whole cell patch clamp, α1H; assay type: cell-based; conditions: HEK cells stably expressing human α1H; mainly non-inactivated protocol; values above 10,000 nM represented as 10000
Procedure, shortened: (§1)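 Whole-cell T-type currents, stably transfected HEK 293 (human α1G/α1H), passage 4-20. Cmpd in external soln, 0.1-0.01% DMSO, local gravity perfusion after ~10 min rest. Two voltage protocols: non-inactivating (resting block), inactivation (voltage-dependent block).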

[2] = molecular target: human α1G T-type channels (Homo sapiens, UniProt O43497); test: T-type calcium channel block, whole cell patch clamp, α1G; assay type: cell-based; conditions: HEK cells stably expressing human α1G; mainly non-inactivated protocol; values above 10,000 nM represented as 10000
Procedure, shortened: as §1

Sequence of human α1G T-type channels (O43497 whole entry): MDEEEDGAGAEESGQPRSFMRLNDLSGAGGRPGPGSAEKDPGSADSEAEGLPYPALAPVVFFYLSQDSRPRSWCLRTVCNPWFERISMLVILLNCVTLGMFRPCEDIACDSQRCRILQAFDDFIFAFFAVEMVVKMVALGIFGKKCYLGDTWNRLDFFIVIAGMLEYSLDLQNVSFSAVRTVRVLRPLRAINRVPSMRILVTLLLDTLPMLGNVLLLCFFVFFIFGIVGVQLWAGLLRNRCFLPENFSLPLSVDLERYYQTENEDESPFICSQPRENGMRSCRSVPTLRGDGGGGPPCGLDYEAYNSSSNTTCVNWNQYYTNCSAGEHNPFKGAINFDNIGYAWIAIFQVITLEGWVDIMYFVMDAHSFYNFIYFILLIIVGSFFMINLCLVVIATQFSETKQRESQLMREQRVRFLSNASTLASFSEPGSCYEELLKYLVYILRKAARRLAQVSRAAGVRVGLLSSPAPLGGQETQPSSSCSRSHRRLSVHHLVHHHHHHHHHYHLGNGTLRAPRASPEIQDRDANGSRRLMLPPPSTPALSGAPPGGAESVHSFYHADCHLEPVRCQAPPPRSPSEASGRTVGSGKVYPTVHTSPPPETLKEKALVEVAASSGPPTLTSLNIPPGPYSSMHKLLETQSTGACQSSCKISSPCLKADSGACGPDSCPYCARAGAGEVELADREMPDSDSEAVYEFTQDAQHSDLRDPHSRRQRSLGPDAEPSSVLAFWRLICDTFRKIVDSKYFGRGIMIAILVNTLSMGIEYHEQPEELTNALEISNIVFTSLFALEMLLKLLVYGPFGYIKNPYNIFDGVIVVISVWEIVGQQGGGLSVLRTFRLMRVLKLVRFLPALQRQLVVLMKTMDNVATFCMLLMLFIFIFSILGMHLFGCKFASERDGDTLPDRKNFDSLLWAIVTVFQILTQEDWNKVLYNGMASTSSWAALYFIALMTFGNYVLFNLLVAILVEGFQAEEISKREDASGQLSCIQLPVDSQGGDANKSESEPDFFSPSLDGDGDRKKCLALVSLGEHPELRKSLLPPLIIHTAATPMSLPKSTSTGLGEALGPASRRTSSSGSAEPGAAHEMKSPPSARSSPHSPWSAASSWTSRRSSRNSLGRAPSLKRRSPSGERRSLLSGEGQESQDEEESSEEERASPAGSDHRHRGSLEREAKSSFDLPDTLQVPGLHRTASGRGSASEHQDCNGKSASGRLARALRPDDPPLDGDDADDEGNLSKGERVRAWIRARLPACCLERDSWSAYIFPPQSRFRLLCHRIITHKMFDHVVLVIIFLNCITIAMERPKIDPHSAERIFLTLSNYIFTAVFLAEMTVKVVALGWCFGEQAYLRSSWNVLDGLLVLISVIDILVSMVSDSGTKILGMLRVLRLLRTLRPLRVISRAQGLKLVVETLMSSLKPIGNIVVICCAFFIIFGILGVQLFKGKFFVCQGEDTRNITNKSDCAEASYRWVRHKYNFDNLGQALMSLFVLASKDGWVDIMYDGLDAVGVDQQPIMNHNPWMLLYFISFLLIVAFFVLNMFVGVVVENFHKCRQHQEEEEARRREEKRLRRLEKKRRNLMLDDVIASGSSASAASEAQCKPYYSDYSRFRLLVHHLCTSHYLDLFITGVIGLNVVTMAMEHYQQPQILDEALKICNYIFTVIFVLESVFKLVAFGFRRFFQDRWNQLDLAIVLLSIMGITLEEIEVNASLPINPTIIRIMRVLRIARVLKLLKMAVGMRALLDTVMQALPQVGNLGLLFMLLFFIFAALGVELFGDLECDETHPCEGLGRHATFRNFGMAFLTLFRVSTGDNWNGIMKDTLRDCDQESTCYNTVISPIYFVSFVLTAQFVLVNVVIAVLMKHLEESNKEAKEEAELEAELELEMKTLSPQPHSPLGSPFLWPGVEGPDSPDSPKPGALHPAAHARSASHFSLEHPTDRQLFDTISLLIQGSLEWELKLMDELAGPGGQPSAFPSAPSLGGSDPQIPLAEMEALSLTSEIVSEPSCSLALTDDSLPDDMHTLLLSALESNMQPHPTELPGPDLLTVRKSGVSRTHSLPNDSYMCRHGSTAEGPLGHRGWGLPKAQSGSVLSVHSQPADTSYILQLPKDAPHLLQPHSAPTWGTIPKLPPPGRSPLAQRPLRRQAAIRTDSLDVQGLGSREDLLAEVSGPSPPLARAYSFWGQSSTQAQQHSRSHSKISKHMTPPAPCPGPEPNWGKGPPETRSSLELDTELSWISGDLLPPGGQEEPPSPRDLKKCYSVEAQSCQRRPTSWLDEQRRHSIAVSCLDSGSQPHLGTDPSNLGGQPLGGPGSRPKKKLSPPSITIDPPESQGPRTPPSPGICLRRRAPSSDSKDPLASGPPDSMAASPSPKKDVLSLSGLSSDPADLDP
Sequence of human α1H T-type channels (O95180 whole entry, the tested form may be a part): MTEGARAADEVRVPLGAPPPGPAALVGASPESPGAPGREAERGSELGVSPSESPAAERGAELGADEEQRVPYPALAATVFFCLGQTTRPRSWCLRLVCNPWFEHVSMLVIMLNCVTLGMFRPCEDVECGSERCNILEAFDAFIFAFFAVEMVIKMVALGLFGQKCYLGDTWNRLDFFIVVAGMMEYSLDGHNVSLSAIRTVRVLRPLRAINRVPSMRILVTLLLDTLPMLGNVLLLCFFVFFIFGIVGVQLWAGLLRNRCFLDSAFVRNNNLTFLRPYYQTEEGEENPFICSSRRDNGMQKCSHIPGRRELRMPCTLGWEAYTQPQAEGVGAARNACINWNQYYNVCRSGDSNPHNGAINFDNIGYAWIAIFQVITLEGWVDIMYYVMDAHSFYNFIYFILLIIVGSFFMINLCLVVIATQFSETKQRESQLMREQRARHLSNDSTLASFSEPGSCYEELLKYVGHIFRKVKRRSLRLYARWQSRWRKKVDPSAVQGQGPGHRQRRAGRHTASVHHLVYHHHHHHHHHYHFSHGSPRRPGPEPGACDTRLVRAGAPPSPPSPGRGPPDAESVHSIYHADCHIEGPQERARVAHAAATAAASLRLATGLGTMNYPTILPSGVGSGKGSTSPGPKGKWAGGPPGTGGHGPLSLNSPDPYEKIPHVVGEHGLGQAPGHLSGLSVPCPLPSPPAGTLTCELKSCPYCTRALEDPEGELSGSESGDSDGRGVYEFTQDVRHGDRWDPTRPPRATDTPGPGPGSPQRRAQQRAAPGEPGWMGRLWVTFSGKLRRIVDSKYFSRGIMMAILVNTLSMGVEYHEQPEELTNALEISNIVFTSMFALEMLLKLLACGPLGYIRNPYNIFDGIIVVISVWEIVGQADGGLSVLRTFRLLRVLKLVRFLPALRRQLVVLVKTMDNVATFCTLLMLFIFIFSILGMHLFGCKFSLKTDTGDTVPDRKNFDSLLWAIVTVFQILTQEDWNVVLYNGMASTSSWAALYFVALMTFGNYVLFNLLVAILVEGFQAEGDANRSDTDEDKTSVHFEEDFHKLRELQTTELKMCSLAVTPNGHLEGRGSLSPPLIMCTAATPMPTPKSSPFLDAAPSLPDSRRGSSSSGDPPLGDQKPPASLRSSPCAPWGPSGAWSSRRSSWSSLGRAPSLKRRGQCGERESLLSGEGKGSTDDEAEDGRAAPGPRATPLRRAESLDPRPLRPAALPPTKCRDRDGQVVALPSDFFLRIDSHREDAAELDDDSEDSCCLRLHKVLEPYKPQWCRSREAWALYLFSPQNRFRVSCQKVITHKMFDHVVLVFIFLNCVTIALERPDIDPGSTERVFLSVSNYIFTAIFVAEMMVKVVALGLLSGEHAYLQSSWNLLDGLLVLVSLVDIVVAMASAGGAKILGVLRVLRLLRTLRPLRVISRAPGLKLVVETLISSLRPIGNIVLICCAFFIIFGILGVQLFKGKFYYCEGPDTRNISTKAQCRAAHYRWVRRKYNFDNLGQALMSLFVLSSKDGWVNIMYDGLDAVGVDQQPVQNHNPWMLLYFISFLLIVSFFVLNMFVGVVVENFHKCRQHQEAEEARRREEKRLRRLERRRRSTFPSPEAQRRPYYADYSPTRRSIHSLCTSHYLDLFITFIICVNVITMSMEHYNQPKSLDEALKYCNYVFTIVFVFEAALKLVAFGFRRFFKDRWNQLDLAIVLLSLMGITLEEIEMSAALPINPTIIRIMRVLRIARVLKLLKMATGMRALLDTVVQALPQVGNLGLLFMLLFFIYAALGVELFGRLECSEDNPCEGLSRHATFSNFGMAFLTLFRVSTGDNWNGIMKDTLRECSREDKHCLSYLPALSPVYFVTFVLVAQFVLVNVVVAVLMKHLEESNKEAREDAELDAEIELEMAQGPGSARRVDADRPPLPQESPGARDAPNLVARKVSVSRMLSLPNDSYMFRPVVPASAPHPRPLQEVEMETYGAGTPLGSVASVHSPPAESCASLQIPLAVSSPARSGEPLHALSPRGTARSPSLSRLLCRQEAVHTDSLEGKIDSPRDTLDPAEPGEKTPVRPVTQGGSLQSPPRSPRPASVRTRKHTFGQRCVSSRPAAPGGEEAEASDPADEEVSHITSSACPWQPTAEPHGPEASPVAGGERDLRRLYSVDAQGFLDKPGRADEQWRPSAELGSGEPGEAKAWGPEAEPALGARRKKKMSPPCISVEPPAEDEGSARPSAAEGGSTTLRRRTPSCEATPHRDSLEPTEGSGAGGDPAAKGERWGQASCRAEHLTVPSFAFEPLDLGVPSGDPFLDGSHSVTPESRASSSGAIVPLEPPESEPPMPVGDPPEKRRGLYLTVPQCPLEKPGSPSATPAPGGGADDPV

SMILES: CC(C)(CNC(=O)c1ccc(C(F)(F)F)cn1)S(=O)(=O)c1cccc(C(F)(F)F)c1 [Compound 476, N-(2-methyl-2-(3-(trifluoromethyl)phenylsulfonyl)propyl)-5-(trifluoromethyl)picolinamide]
pIC50 [1]: 5.25 | pIC50 [2]: 6.40

SMILES: CC(C)(C)C(=O)Nc1ccncc1C(=O)NCC(C)(C)S(=O)(=O)c1cccc(C(F)(F)F)c1 [Compound 477, N-(2-methyl-2-(3-(trifluoromethyl)phenylsulfonyl)propyl)-4-pivalamidonicotinamide]
pIC50 [1]: < 5.00 | pIC50 [2]: 6.27

SMILES: COc1c(C)cc(C(=O)NCC(C)(C)S(=O)(=O)c2cccc(C(F)(F)F)c2)cc1C [Compound 481, 4-methoxy-3,5-dimethyl-N-(2-methyl-2-(3-(trifluoromethyl)phenylsulfonyl)propyl) benzamide]
pIC50 [1]: < 5.00 | pIC50 [2]: 6.14

SMILES: CC(C)(C(=O)Nc1ccc(Oc2ccc(F)cc2)cc1)S(=O)(=O)c1cccc(C(F)(F)F)c1 [Compound 488, N-(4-(4-fluorophenoxy)phenyl)-2-methyl-2-(3-(trifluoromethyl)phenylsulfonyl)propanamide]
pIC50 [1]: 5.54 | pIC50 [2]: 6.54

SMILES: CC(C)(CNS(=O)(=O)c1ccccc1C(F)(F)F)S(=O)(=O)c1cccc(C(F)(F)F)c1 [Compound 494, N-(2-methyl-2-(3-(trifluoromethyl)phenylsulfonyl)propyl)-2-(trifluoromethyl) benzenesulfonamide]
pIC50 [1]: 5.45 | pIC50 [2]: 6.40

SMILES: CC(C)(CNS(=O)(=O)c1cccc(C(F)(F)F)c1)S(=O)(=O)c1cccc(C(F)(F)F)c1 [Compound 495, N-(2-methyl-2-(3-(trifluoromethyl)phenylsulfonyl)propyl)-3-(trifluoromethyl) benzenesulfonamide]
pIC50 [1]: 5.69 | pIC50 [2]: 6.72

SMILES: CC(C)(CNS(=O)(=O)c1ccc(OC(F)(F)F)cc1)S(=O)(=O)c1cccc(C(F)(F)F)c1 [Compound 496, N-(2-methyl-2-(3-(trifluoromethyl)phenylsulfonyl)propyl)-4-(trifluoromethoxy) benzenesulfonamide]
pIC50 [1]: 6.46 | pIC50 [2]: 6.77

SMILES: CC(C)(C)c1ccc(S(=O)(=O)NCC(C)(C)S(=O)(=O)c2cccc(C(F)(F)F)c2)cc1 [Compound 499, 4-tert-butyl-N-(2-methyl-2-(3-(trifluoromethyl)phenylsulfonyl)propyl) benzenesulfonamide]
pIC50 [1]: 6.00 | pIC50 [2]: 7.05

SMILES: CC(C)(CNS(=O)(=O)c1ccc2c(c1)OCO2)S(=O)(=O)c1cccc(C(F)(F)F)c1 [Compound 500, N-(2-methyl-2-(3-(trifluoromethyl)phenylsulfonyl)propyl)benzo[d] [1,3]dioxole-5-sulfonamide]
pIC50 [1]: 5.51 | pIC50 [2]: 6.47

SMILES: CC(C)(CNS(=O)(=O)c1ccc2ncsc2c1)S(=O)(=O)c1cccc(C(F)(F)F)c1 [Compound 501, N-(2-methyl-2-(3-(trifluoromethyl)phenylsulfonyl)propyl)benzo [d]thiazole-6-sulfonamide]
pIC50 [1]: < 5.00 | pIC50 [2]: 6.38

SMILES: CC(C)(C)Oc1ccc(CNC(=O)C(C)(C)S(=O)(=O)c2cccc(C(F)(F)F)c2)cc1 [Compound 502, N-(4-tert-butoxybenzyl)-2-methyl-2-(3-(trifluoromethyl)phenylsulfonyl)propanamide]
pIC50 [1]: 5.51 | pIC50 [2]: 6.44

SMILES: CC(C)(C(=O)Nc1ccc(Oc2ccc(F)cc2)nc1)S(=O)(=O)c1cccc(C(F)(F)F)c1 [Compound 503, N-(6-(4-fluorophenoxy)pyridin-3-yl)-2-methyl-2-(3-(trifluoromethyl)phenylsulfonyl)propanamide]
pIC50 [1]: 5.55 | pIC50 [2]: 6.72

Next, values leading:

pIC50 [1]: 5.27 | pIC50 [2]: 6.57
SMILES: CC(C)(CNC(=O)c1nc2cc(F)ccc2[nH]1)S(=O)(=O)c1cccc(C(F)(F)F)c1 [Compound 478, 5-fluoro-N-(2-methyl-2-(3-(trifluoromethyl)phenylsulfonyl)propyl)-1H-benzo[d]imidazole-2-carboxamide]

pIC50 [1]: 5.68 | pIC50 [2]: 6.05
SMILES: CC(C)(CNC(=O)c1ccc(Cl)c(Cl)c1)S(=O)(=O)c1cccc(C(F)(F)F)c1 [Compound 479, 3,4-dichloro-N-(2-methyl-2-(3-(trifluoromethyl)phenylsulfonyl)propyl) benzamide]

pIC50 [1]: 5.26 | pIC50 [2]: 6.14
SMILES: CC(C)(CNC(=O)c1ccc(Cl)cc1Cl)S(=O)(=O)c1cccc(C(F)(F)F)c1 [Compound 480, 2,4-dichloro-N-(2-methyl-2-(3-(trifluoromethyl)phenylsulfonyl)propyl) benzamide]

pIC50 [1]: 5.43 | pIC50 [2]: 6.02
SMILES: CC(C)(CNC(=O)c1ccc(F)c(Cl)c1)S(=O)(=O)c1cccc(C(F)(F)F)c1 [Compound 482, 3-chloro-4-fluoro-N-(2-methyl-2-(3-(trifluoromethyl)phenylsulfonyl)propyl) benzamide]

pIC50 [1]: 5.41 | pIC50 [2]: 6.05
SMILES: CC(C)(CNC(=O)c1ccc(OCC(F)(F)F)nc1)S(=O)(=O)c1cccc(C(F)(F)F)c1 [Compound 483, N-(2-methyl-2-(3-(trifluoromethyl)phenylsulfonyl)propyl)-6-(2,2,2-trifluoroethoxy) nicotinamide]

pIC50 [1]: 5.17 | pIC50 [2]: 6.28
SMILES: CC(C)(C)c1cc(C(=O)NCC(C)(C)S(=O)(=O)c2cccc(C(F)(F)F)c2)ccn1 [Compound 484, 2-tert-butyl-N-(2-methyl-2-(3-(trifluoromethyl)phenylsulfonyl)propyl) isonicotinamide]

pIC50 [1]: 6.07 | pIC50 [2]: 6.29
SMILES: CC(C)(CC(=O)Nc1ccc(Oc2ccc(F)cc2)cc1)S(=O)(=O)c1cccc(C(F)(F)F)c1 [Compound 486, N-(4-(4-fluorophenoxy)phenyl)-3-methyl-3-(3-(trifluoromethyl)phenylsulfonyl)butanamide]

pIC50 [1]: 5.48 | pIC50 [2]: 6.68
SMILES: CC(C)(C(=O)Nc1ccc(Oc2ccccc2)cc1)S(=O)(=O)c1cccc(C(F)(F)F)c1 [Compound 487, 2-methyl-N-(4-phenoxyphenyl)-2-(3-(trifluoromethyl)phenylsulfonyl)propanamide]

pIC50 [1]: < 5.00 | pIC50 [2]: 6.34
SMILES: CC(C)(CNS(=O)(=O)c1cccc2nsnc12)S(=O)(=O)c1cccc(C(F)(F)F)c1 [Compound 490]

pIC50 [1]: < 5.00 | pIC50 [2]: 6.33
SMILES: CC(C)(CNS(=O)(=O)c1cccc2cccnc12)S(=O)(=O)c1cccc(C(F)(F)F)c1 [Compound 491, N-(2-methyl-2-(3-(trifluoromethyl)phenylsulfonyl)propyl)quinoline-8-sulfonamide]

pIC50 [1]: 5.03 | pIC50 [2]: 6.23
SMILES: CC(C)(CNS(=O)(=O)c1ccc2c(c1)NC(=O)CO2)S(=O)(=O)c1cccc(C(F)(F)F)c1 [Compound 492, N-(2-methyl-2-(3-(trifluoromethyl)phenylsulfonyl)propyl)-3-oxo-3,4-dihydro-2H-benzo[b][1,4]oxazine-6-sulfonamide]

pIC50 [1]: 5.86 | pIC50 [2]: 6.59
SMILES: CC(C)(CNS(=O)(=O)c1ccc(C(F)(F)F)cc1Cl)S(=O)(=O)c1cccc(C(F)(F)F)c1 [Compound 498, 2-chloro-N-(2-methyl-2-(3-(trifluoromethyl)phenylsulfonyl)propyl)-4-(trifluoromethyl) benzenesulfonamide]

pIC50 [1]: 5.00 | pIC50 [2]: 6.21
SMILES: CC(C)(CNC(=O)c1cn2ccc(C(F)(F)F)cc2n1)S(=O)(=O)c1cccc(C(F)(F)F)c1 [Compound 505, N-(2-methyl-2-(3-(trifluoromethyl)phenylsulfonyl)propyl)-7-(trifluoromethyl)imidazo[1,2-a]pyridine-2-carboxamide]
